Experimental data published in patent publication US20260042731A1, “(2,4-DICHLOROPHENOXY)ACETIC ACID ANALOGS” (CORTEVA AGRISCIENCE LLC, priority 2022, published 2026).
Like-named read-outs stand apart in the source and are kept apart here.

How the values were obtained:
[1] = test system: weeds (ABUTH, AMATA, AMBEL, CHEAL, ERICA); assay: Postemergence herbicide evaluation, overall average % weed control across ABUTH, AMATA, AMBEL, CHEAL, ERICA; format: in vivo; settings: post-emergence, average over the five weeds, read-out: Overall Ave % Weed Control; for pest or weed control at 280 g/ha: 280 g ae/ha; for pest or weed control at 560 g/ha: 560 g ae/ha
[2] = test system: Amaranthus rudis (AMATA), tall water hemp; assay: Postemergence herbicide evaluation, growth of Amaranthus rudis (AMATA); format: in vivo; settings: Amaranthus tuberculatus, post-emergence, percent reduction in plant size relative to untreated control, read-out: Ave. AMATA; for pest or weed control at 280 g/ha: 280 g ae/ha; for pest or weed control at 560 g/ha: 560 g ae/ha
Corn (ZEAMX) = assay: Greenhouse post-emergence mixture trials, percent visual control; format: in vivo; settings: ZEAMX, 21 DAA
[3] = test system: Ambrosia artemisiifolia (AMBEL), common ragweed; assay: Postemergence herbicide evaluation, growth of Ambrosia artemisiifolia (AMBEL); format: in vivo; settings: Ambrosia artemisiifolia, post-emergence, percent reduction in plant size relative to untreated control, read-out: AVE. AMBEL; for pest or weed control at 280 g/ha: 280 g ae/ha; for pest or weed control at 560 g/ha: 560 g ae/ha
[4] = Volatility of compounds measured by thermogravimetric analysis (TGA); format: physicochemical
[5] = test system: glyphosate resistant Conyza canadensis (L.) (ERICA), horseweed; assay: Postemergence herbicide evaluation, growth of Conyza canadensis (ERICA); format: in vivo; settings: Erigeron canadensis, post-emergence, percent reduction in plant size relative to untreated control, read-out: Ave. ERICA; for pest or weed control at 280 g/ha: 280 g ae/ha; for pest or weed control at 560 g/ha: 560 g ae/ha
[6] = test system: Abutilon theophrasti (ABUTH), velvetleaf; assay: Postemergence herbicide evaluation, growth of Abutilon theophrasti (ABUTH); format: in vivo; settings: Abutilon theophrasti, post-emergence, percent reduction in plant size relative to untreated control, read-out: AVE. ABUTH; for pest or weed control at 280 g/ha: 280 g ae/ha; for pest or weed control at 560 g/ha: 560 g ae/ha
[7] = test system: Common Lambsquarters (CHEAL); assay: Greenhouse post-emergence mixture trials, percent visual control; format: in vivo; settings: CHEAL, 21 DAA; for pest or weed control at 560 g/ha / pest or weed control at 1120 g/ha: Chenopodium album, post-emergence, 504 h, no mixing partner; for pest or weed control at 1120 g/ha: read-out: % Control
[8] = test system: Chenopodium album (CHEAL), common lambsquarters; assay: Postemergence herbicide evaluation, growth of Chenopodium album (CHEAL); format: in vivo; settings: Chenopodium album, post-emergence, percent reduction in plant size relative to untreated control, read-out: Ave. CHEAL; for pest or weed control at 280 g/ha: 280 g ae/ha; for pest or weed control at 560 g/ha: 560 g ae/ha
Velvetleaf (ABUTH) = assay: Greenhouse post-emergence mixture trials, percent visual control; format: in vivo; settings: ABUTH, 21 DAA; for pest or weed control at 560 g/ha / pest or weed control at 1120 g/ha: Abutilon theophrasti, post-emergence, 504 h, no mixing partner; for pest or weed control at 1120 g/ha: read-out: % Control
[9] = Trial Bridge 2, compound 560 g ae/ha + Saflufenacil 25 g ai or ae/ha
[10] = Trial Bridge 2, compound 560 g ae/ha + Saflufenacil 75 g ai or ae/ha
[11] = Trial Bridge 2, compound 560 g ae/ha + Trifludimoxazin 12.5 g ai or ae/ha
[12] = Trial Bridge 2, compound 560 g ae/ha + Trifludimoxazin 50 g ai or ae/ha
[13] = Trial Bridge 2, compound 1120 g ae/ha + Saflufenacil 25 g ai or ae/ha
[14] = Trial Bridge 2, compound 1120 g ae/ha + Saflufenacil 75 g ai or ae/ha
[15] = Trial Bridge 2, compound 1120 g ae/ha + Trifludimoxazin 50 g ai or ae/ha
[16] = Trial Bridge 2, compound 560 g ae/ha
[17] = Trial Bridge 2, compound 1120 g ae/ha
[18] = Trial Bridge 1, compound 560 g ae/ha + Glufosinate 600 g ai or ae/ha

O=C(COc1ccc(Cl)cc1Cl)NNC(=O)c1ccccc1 [Compound D10]
pest or weed control at 280 g/ha ([1]; 168 h, 7 DAA): 71%
pest or weed control at 560 g/ha ([1]; 168 h, 7 DAA): 75%
pest or weed control at 280 g/ha ([1]; 336 h, 14 DAA): 84%
pest or weed control at 560 g/ha ([1]; 336 h, 14 DAA): 92%
pest or weed control at 280 g/ha ([1]; 504 h, 21 DAA): 87%
pest or weed control at 560 g/ha ([1]; 504 h, 21 DAA): 94%
pest or weed control at 280 g/ha ([2]; 168 h, 7 DAA): 68%
pest or weed control at 560 g/ha ([2]; 168 h, 7 DAA): 80%
pest or weed control at 280 g/ha ([2]; 336 h, 14 DAA): 94%
pest or weed control at 560 g/ha ([2]; 336 h, 14 DAA): 96%
pest or weed control at 280 g/ha ([2]; 504 h, 21 DAA): 85%
pest or weed control at 560 g/ha ([2]; 504 h, 21 DAA): 85%
% Control (Corn (ZEAMX); Trial Bridge 1, compound 560 g ae/ha + Glyphosate 1120 g ai or ae/ha): 75%
% Control (Corn (ZEAMX); Trial Bridge 1, compound 560 g ae/ha + Glyphosate 1120 g ai or ae/ha, single replicate): 70%
% Control (Corn (ZEAMX); Trial Bridge 1, compound 1120 g ae/ha, no mixing partner, single replicate): 10%
plant injury at 1120 g/ha (Corn (ZEAMX); Zea mays, post-emergence, 504 h, Trial Bridge 1, compound 1120 g ae/ha, no mixing partner, single replicate): 10%
plant injury at 560 g/ha (Corn (ZEAMX); Zea mays, post-emergence, 504 h, compound 560 g ae/ha, no mixing partner, Trial Bridge 3): 5%
pest or weed control at 280 g/ha ([3]; 168 h, 7 DAA): 73%
pest or weed control at 560 g/ha ([3]; 168 h, 7 DAA): 83%
pest or weed control at 280 g/ha ([3]; 336 h, 14 DAA): 91%
pest or weed control at 560 g/ha ([3]; 336 h, 14 DAA): 97%
pest or weed control at 280 g/ha ([3]; 504 h, 21 DAA): 93%
pest or weed control at 560 g/ha ([3]; 504 h, 21 DAA): 100%
TGA Data (rate of weight loss, volatility) [4]: 0.3 µg/min
pest or weed control at 280 g/ha ([5]; 168 h, 7 DAA): 63%
pest or weed control at 560 g/ha ([5]; 168 h, 7 DAA): 65%
pest or weed control at 280 g/ha ([5]; 336 h, 14 DAA): 83%
pest or weed control at 560 g/ha ([5]; 336 h, 14 DAA): 88%
pest or weed control at 280 g/ha ([5]; 504 h, 21 DAA): 93%
pest or weed control at 560 g/ha ([5]; 504 h, 21 DAA): 99%
pest or weed control at 280 g/ha ([6]; 168 h, 7 DAA): 88%
pest or weed control at 560 g/ha ([6]; 168 h, 7 DAA): 83%
pest or weed control at 280 g/ha ([6]; 336 h, 14 DAA): 85%
pest or weed control at 560 g/ha ([6]; 336 h, 14 DAA): 96%
pest or weed control at 280 g/ha ([6]; 504 h, 21 DAA): 91%
pest or weed control at 560 g/ha ([6]; 504 h, 21 DAA): 100%
% Control [7, 9]: 100%
% Control [7, 10]: 100%
% Control [7, 11]: 100%
% Control [7, 12]: 100%
% Control [7, 13]: 100%
% Control [7, 14]: 100%
% Control ([7]; Trial Bridge 2, compound 1120 g ae/ha + Trifludimoxazin 12.5 g ai or ae/ha): 100%
% Control [7, 15]: 100%
% Control ([7]; Trial Bridge 3, compound 560 g ae/ha + Sulfentrazone 130 g ai/ha): 100%
% Control ([7]; Trial Bridge 3, compound 560 g ae/ha + Sulfentrazone 347 g ai/ha): 100%
% Control ([7]; Trial Bridge 3, compound 1120 g ae/ha + Sulfentrazone 130 g ai/ha): 100%
% Control ([7]; Trial Bridge 3, compound 1120 g ae/ha + Sulfentrazone 347 g ai/ha): 100%
pest or weed control at 560 g/ha [7, 16]: 95%
pest or weed control at 1120 g/ha [7, 17]: 95%
pest or weed control at 560 g/ha ([7]; Trial Bridge 3, compound 560 g ae/ha): 95%
pest or weed control at 1120 g/ha ([7]; Trial Bridge 3, compound 1120 g ae/ha): 100%
pest or weed control at 560 g/ha ([7]; Trial Bridge 1, compound 560 g ae/ha): 95%
pest or weed control at 1120 g/ha ([7]; Trial Bridge 1, compound 1120 g ae/ha): 95%
% Control [7, 18]: 100%
% Control ([7]; Trial Bridge 1, compound 560 g ae/ha + Mesotrione 150 g ai or ae/ha): 100%
% Control ([7]; Trial Bridge 1, compound 1120 g ae/ha + Arylex 5 g ai or ae/ha): 95%
% Control ([7]; Trial Bridge 1, compound 1120 g ae/ha + Mesotrione 150 g ai or ae/ha): 100%
pest or weed control at 280 g/ha ([8]; 168 h, 7 DAA): 63%
pest or weed control at 560 g/ha ([8]; 168 h, 7 DAA): 65%
pest or weed control at 280 g/ha ([8]; 336 h, 14 DAA): 68%
pest or weed control at 560 g/ha ([8]; 336 h, 14 DAA): 83%
pest or weed control at 280 g/ha ([8]; 504 h, 21 DAA): 73%
pest or weed control at 560 g/ha ([8]; 504 h, 21 DAA): 85%
% Control (Velvetleaf (ABUTH); compound 1120 g ae/ha + Sulfentrazone 130 g ai/ha, Trial Bridge 3): 100%
% Control (Velvetleaf (ABUTH); compound 1120 g ae/ha + Sulfentrazone 347 g ai/ha, Trial Bridge 3): 100%
pest or weed control at 560 g/ha (Velvetleaf (ABUTH); compound 560 g ae/ha, Trial Bridge 3): 85%
pest or weed control at 1120 g/ha (Velvetleaf (ABUTH); compound 1120 g ae/ha, Trial Bridge 3): 95%
pest or weed control at 560 g/ha (Velvetleaf (ABUTH); Trial Bridge 1 Trt 2, D10 560 g ae/ha): 99%
pest or weed control at 1120 g/ha (Velvetleaf (ABUTH); Trial Bridge 1 Trt 3, D10 1120 g ae/ha): 100%
pest or weed control at 560 g/ha (Velvetleaf (ABUTH); [16]): 100%
pest or weed control at 1120 g/ha (Velvetleaf (ABUTH); [17]): 100%
% Control (Velvetleaf (ABUTH); [18]): 100%
% Control (Velvetleaf (ABUTH); Trial Bridge 1 Trt 5, D10 560 g ae/ha + diclosulam 35 g ai or ae/ha): 100%
% Control (Velvetleaf (ABUTH); Trial Bridge 1 Trt 6, D10 1120 g ae/ha + diclosulam 35 g ai or ae/ha): 100%
% Control (Velvetleaf (ABUTH); Trial Bridge 1 Trt 8, D10 560 g ae/ha + Arylex 5 g ai or ae/ha): 100%
% Control (Velvetleaf (ABUTH); Trial Bridge 1 Trt 9, D10 1120 g ae/ha + Arylex 5 g ai or ae/ha): 100%
% Control (Velvetleaf (ABUTH); Trial Bridge 1 Trt 11, D10 560 g ae/ha + Mesotrione 150 g ai or ae/ha): 100%
% Control (Velvetleaf (ABUTH); Trial Bridge 1 Trt 12, D10 1120 g ae/ha + Mesotrione 150 g ai or ae/ha): 100%
% Control (Velvetleaf (ABUTH); Trial Bridge 1 Trt 14, D10 560 g ae/ha + Glyphosate 1120 g ai or ae/ha): 100%
% Control (Velvetleaf (ABUTH); Trial Bridge 1 Trt 15, D10 1120 g ae/ha + Glyphosate 1120 g ai or ae/ha): 100%
% Control (Velvetleaf (ABUTH); [9]): 100%
% Control (Velvetleaf (ABUTH); [10]): 100%
% Control (Velvetleaf (ABUTH); [11]): 100%
% Control (Velvetleaf (ABUTH); [12]): 100%
% Control (Velvetleaf (ABUTH); [13]): 100%
% Control (Velvetleaf (ABUTH); [14]): 100%
% Control (Velvetleaf (ABUTH); [15]): 100%
